Measurements taken from patent US11485751B2, “Apramycin derivatives” (WAYNE STATE UNIVERSITY, priority 2017, dated 2022).
Values after ≈ are worked out from the molar mass of the structure shown. Like-named read-outs stand apart in the source and are kept apart here.

Experiments:
WT clinical isolates = assay: MIC broth microdilution, WT; format: cell-based; settings: read-out: MIC WT, clinical isolates, IMM Univ. Zurich; wild type
Description: (§1) Minimal inhibitory concentrations (MIC) have been determined by broth microdilution assays (CLSI. Methods for Dilution Antimicrobial Susceptibility Tests for Bacteria That Grow Aerobically; Approved Standard—Tenth Edition. CLSI document M07-A10. Wayne, Pa.: Clinical and Laboratory Standards Institute; 2015.).
(§2) Minimal inhibitory concentrations (MICs, […]) against clinical isolates from Institute of Medical Microbiology, Univ. Zurich, and the IC50 values for bacterial, human mitochondrial and human cytosolic ribosomes are indicated.
(§3) Minimal inhibitory concentrations (μg/ml) against clinical isolates from Institute of Medical Microbiology, Univ. Zurich, and the IC50 values for bacterial, human mitochondrial and human cytosolic ribosomes are indicated.
(§4) The Minimal inhibitory concentrations (MICs, μg/ml) against clinical isolates from Institute of Medical Microbiology, Univ Zurich, and the IC50 values for bacterial, human mitochondrial and human cytosolic ribosomes are indicated.

bacterial ribosomes = assay: in-vitro translation assay, bacterial ribosomes; format: biochemical
Description: (§5) IC50 values for bacterial, human chimeric, and rabbit reticulocyte ribosomes have been determined by in-vitro translation assays as described previously (Proc. Nat. Ac. Sci USA 2012, 109(27):10984-10989).
as §2

[1] = system: human mitochondrial ribosomes; assay: in-vitro translation assay, human mitochondrial (human chimeric) ribosomes; format: biochemical
Description: as §5, §2

[2] = system: human cytosolic ribosomes; assay: in-vitro translation assay, human cytosolic ribosomes; format: biochemical
Description: as §5, §2

[3] = system: AG212, Escherichia coli ATCC25922; assay: MIC reference strain AG212; format: cell-based; settings: Escherichia coli
Description: as §1
(§6) Table 4 and 5 show the antibacterial activity of the compounds of the invention against bacterial reference strains (table 4) and against representative clinical isolates (table 5).
(§7) Legend to Tables: GEN, gentamicin; AMK, amikacin; PLZ, plazomicin; APR, apramycin; AG212, Escherichia coli ATCC25922; AG215, Klebsiella pneumonia; AG220, Pseudomonas aeruginosa ATCC27853; AG225, Acinetobacter baumannii pittii; AG290, Enterobacter cloacae; […], Mycobacterium smegmatis. MICs for AG192 have been determined in the presence of 0.5 μg/mL of ampicillin in the medium to mimic the synergistic effect of aminoglycoside and β-lactam antibiotics combination therapy in the treatment of Enterococcus infections in humans.

[4] = system: AG215, Klebsiella pneumonia; assay: MIC reference strain AG215; format: cell-based; settings: Klebsiella pneumoniae, read-out: MIC AG215 K. pneumonia
Description: as §1, §6, §7

[5] = system: AG290, Enterobacter cloacae; assay: MIC reference strain AG290; format: cell-based; settings: Enterobacter cloacae, read-out: MIC AG290 E. cloacae
Description: as §1, §6, §7

[6] = system: AG220, Pseudomonas aeruginosa ATCC27853; assay: MIC reference strain AG220; format: cell-based; settings: Pseudomonas aeruginosa
Description: as §1, §6, §7

[7] = system: AG225, Acinetobacter baumannii pittii; assay: MIC reference strain AG225; format: cell-based; settings: Acinetobacter baumannii, read-out: MIC AG225 A. baumannii
Description: as §1, §6, §7

AG001 E. coli WT = assay: Antibacterial activity, clinical isolate AG001; format: cell-based; parameters: unit not given here
Description: as §1, §6

AG038 MRSA = assay: Antibacterial activity, clinical isolate AG038; format: cell-based; parameters: unit not given here
Description: as §1, §6

AG031 P. aer. APH(3′)-II = assay: Antibacterial activity, clinical isolate AG031; format: cell-based; parameters: unit not given here
Description: as §1, §6

[8] = system: clinical isolates carrying AAC(3)-IV; assay: MIC broth microdilution, AAC(3)-IV; format: cell-based; settings: clinical isolates, IMM Univ. Zurich; AAC(3)-IV; read-out: MIC AAC(3)-IV
Description: as §1, §2, §3, §4

isolates carrying apmA = assay: MIC broth microdilution, apmA; format: cell-based; settings: apmA resistance gene
Description: Minimal inhibitory concentrations (MIC) have been determined by broth microdilution assays (CLSI. Methods for Dilution Antimicrobial Susceptibility Tests for Bacteria That Grow Aerobically; Approved Standard—Tenth Edition. CLSI document M07-A10. Wayne, Pa.: Clinical and Laboratory Standards Institute; 2015.). […]
as §3, §4

[9] = system: SZ380, Mycobacterium smegmatis; assay: MIC reference strain SZ380; format: cell-based; settings: Mycolicibacterium smegmatis, reference strain; read-out: MIC SZ380 M. smegmatis
Description: as §1, §6, §7

ATCC19977 M. abcessus = assay: MIC reference strain ATCC19977; format: cell-based; settings: read-out: MIC ATCC19977 M. abcessus
Description: as §1, §6

AG055 E. coli WT = assay: Antibacterial activity, clinical isolate AG055; format: cell-based; parameters: unit not given here
Description: as §1, §6

AG003 E. coli AAC(3)-II = assay: Antibacterial activity, clinical isolate AG003; format: cell-based
Description: as §1, §6

AG173 E. coli AAC(3)-IV = assay: Antibacterial activity, clinical isolate AG173; format: cell-based
Description: as §1, §6

[10] = system: AG039 MRSA AAC(6′)-I ANT(4′)-I; assay: Antibacterial activity, clinical isolate AG039; format: cell-based
Description: as §1, §6

[11] = system: AG042 MRSA AAC(6′)-I ANT(4′)-I APH(2′); assay: Antibacterial activity, clinical isolate AG042; format: cell-based; parameters: unit not given here
Description: as §1, §6

AG032 P. aer. APH(3′)-II = assay: Antibacterial activity, clinical isolate AG032; format: cell-based; parameters: unit not given here
Description: as §1, §6

[12] = system: AG033 P. aer. APH(3′)-II AAC(6′)-I; assay: Antibacterial activity, clinical isolate AG033; format: cell-based; parameters: unit not given here
Description: as §1, §6

[13] = system: Engineered E. coli pH430 WT; assay: Activity, engineered E. coli pH430 WT; format: cell-based; settings: wild type
Description: as §1

[14] = system: Engineered E. coli AG103 armA; assay: Activity against G1405-methylated 16S-rRNA, E. coli AG103 armA; format: cell-based
Description: as §1

[15] = system: Engineered E. coli pH424 armA; assay: Activity against G1405-methylated 16S-rRNA, E. coli pH424 armA; format: cell-based
Description: as §1

[16] = system: Engineered E. coli pH425 rmtB; assay: Activity against G1405-methylated 16S-rRNA, E. coli pH425 rmtB; format: cell-based
Description: as §1

[17] = system: Engineered E. coli pH426 rmtC; assay: Activity against G1405-methylated 16S-rRNA, E. coli pH426 rmtC; format: cell-based
Description: as §1

[18] = system: Engineered E. coli pH427 rmtF; assay: Activity against G1405-methylated 16S-rRNA, E. coli pH427 rmtF; format: cell-based
Description: as §1

[19] = reference strain ATCC25922, read-out: MIC AG212 E. coli
[20] = ATCC27853, reference strain ATCC27853, read-out: MIC AG220 P. aeruginosa

Row | Structure (SMILES) | MIC (WT clinical isolates) [µg/mL] | IC50 (bacterial ribosomes) [µM] | IC50 [1] [µM] | IC50 [2] [µM] | Antibacterial activity AG001 E. coli WT (AG001 E. coli WT) | Antibacterial activity AG038 MRSA (AG038 MRSA) | Antibacterial activity AG031 P. aer. APH(3′)-II (AG031 P. aer. APH(3′)-II) | MIC [3, 19] [µg/mL] | MIC ([4]; reference strain) [µg/mL] | MIC ([5]; reference strain) [µg/mL] | MIC [6, 20] [µg/mL] | MIC ([7]; reference strain) [µg/mL] | MIC (ATCC19977 M. abcessus) [µg/mL] | Antibacterial activity AG055 E. coli WT (AG055 E. coli WT) | Antibacterial activity AG003 E. coli AAC(3)-II (AG003 E. coli AAC(3)-II) | Antibacterial activity AG039 MRSA AAC(6′)-I ANT(4′)-I [10] | Antibacterial activity AG042 MRSA AAC(6′)-I ANT(4′)-I APH(2′) [11] | Antibacterial activity AG032 P. aer. APH(3′)-II (AG032 P. aer. APH(3′)-II) | Antibacterial activity AG033 P. aer. APH(3′)-II AAC(6′)-I [12] | Activity E. coli pH430 WT [13] | also measured
1 | CNC1C(OC2OC(CO)C(N)C(O)C2O)OC2CC(N)C(OC3C(N)CC(N)C(O)C3OCC(O)CN)OC2C1O (stereo not drawn) [DC212] | 4 (≈ 6.53 µM) | 0.1 | 158 | 112 | 8 | 4 | 8 |  |  |  |  |  |  |  |  |  |  |  |  |  | MIC ([3]; ATCC25922, read-out: MIC AG212 E. coli): 4 µg/mL; MIC [4]: 2 µg/mL; MIC [5]: 4 µg/mL; MIC ([6]; ATCC27853, read-out: MIC AG220 P. aeruginosa): 4 µg/mL; MIC [7]: 4 µg/mL
2 | CNC1C(OC2OC(CO)C(N)C(O)C2O)OC2CC(N)C(OC3CC(O)C(N)CC3N)OC2C1O (stereo not drawn) [DC169, 5-Deoxy-apramycin] | 4 (≈ 7.64 µM) | 0.06 | 45 | 42 | 4 | 2-4 | 8 | 4 | 2 | 2 | 4 | 4 | 1 (≈ 1.91 µM) | 4 | 4 | 2 | 4 | 8 | 16 | 4 | MIC [8]: > 32 µg/mL; MIC (isolates carrying apmA): 16 µg/mL (≈ 30.6 µM); MIC [9]: 0.125 µg/mL; Antibacterial activity AG173 E. coli AAC(3)-IV (AG173 E. coli AAC(3)-IV): 32; Activity E. coli AG103 armA [14]: 1; Activity E. coli pH424 armA [15]: 2; Activity E. coli pH425 rmtB [16]: 4; Activity E. coli pH426 rmtC [17]: 4; Activity E. coli pH427 rmtF [18]: 4
3 | CNC1C(OC2OC(CO)C(N)C(O)C2O)OC2CC(N)C(OC3C(N)CC(N)C(O)C3F)OC2C1O (stereo not drawn) [DC170, 5-Deoxy-5-fluoro apramycin] | 4 (≈ 7.39 µM) | 0.06 | 62 | 74 | 8 | 4-8 | 8-16 | 4 | 2 | 4 | 8 | 4 to 8 | 1 (≈ 1.85 µM) | 4 | 8 | 4-8 | 8 | 16 | 32 | 4 | MIC [8]: > 32 µg/mL; MIC apmA (isolates carrying apmA): 32 µg/mL (≈ 59.1 µM); MIC [9]: 0.25 µg/mL; Antibacterial activity AG173 E. coli AAC(3)-IV (AG173 E. coli AAC(3)-IV): 64; Activity E. coli AG103 armA [14]: 2; Activity E. coli pH424 armA [15]: 2; Activity E. coli pH425 rmtB [16]: 4; Activity E. coli pH426 rmtC [17]: 4; Activity E. coli pH427 rmtF [18]: 4
4 | CN[C@@H]1[C@@H](O)[C@@H](O[C@@H]2[C@@H](O)[C@H](O[C@H]3OC(CNCCO)=CC[C@H]3N)[C@@H](N)C[C@H]2NC(=O)[C@@H](O)CCN)OC[C@]1(C)O [PLZ, plazomicin, reference compound] |  |  |  |  | 2-4 | 2-4 | 4 | 0.5 to 1 | 0.25 to 0.5 | 0.5 | 2 to 4 | 2 | 4 (≈ 6.75 µM) | 2-4 | 2-4 | 2-4 | 2 | 4 | 16-32 | 0.5 | Activity E. coli AG103 armA [14]: >32
